{"source": "patent US7273723B2", "about": "“Antibiotic-based gene regulation system” (priority 2001, dated 2007)", "key": {"[1]": {"system": "ET1 (MphR(A)-VP16) / PETR promoters", "experiment": "SEAP reporter assay, CHO lines stably expressing ET1 (CHO-ET11, CHO-ET12) transiently transfected with PETR-SEAP plasmids", "format": "cell-based", "conditions": "for SEAP Production (%) +EM: 2 μg/ml EM, −EM = 100; for SEAP activity [U/L] + EM: erythromycin 2 μg/ml", "procedure": "Chinese hamster ovary cells (CHO-K1, ATCC: CCL 61), and HeLa cells (ATCC: CRL-7923) as well as stable cell lines derived thereof were cultured as described before (Fussenegger et al., 1998, Nat. Biotechnol. 16,468-472) in the presence of appropriate antibiotics: G418 400 μg/ml; zeocin 100 μg/ml. Optimized CaPO4 protocols were used for high efficiency transient transfection of all cell lines (Fussenegger et al., 1998. Nat. Biotechnol. 16: 468-472). Transiently transfected cells were routinely analyzed after 48 h for CFP or SEAP expression using fluorescence microscopy and p-nitrophenolphosphate-based light absorbance timecourse, respectively, as described before (Fussenegger et al., 1998, Nat. Biotechnol. 16, 468-472; Berger et al., 1988, Gene 66, 1-10 b). For construction of stable CHO-ET1 and CHO-Triplet42 cell lines, CHO-Ki and CHO-TWIN1108 (Disclosed in PCT application no. 00/65080) were cotransfected with pWW35 and pZeoSV2 (invitrogen). CHO-ET11-SEAP was constructed by cotransfection of pWW38 and pSV2neo (Clontech) into CHO-ET11. The mixed populations were cloned using FACS-mediated single-cell-sorting (FACStar^Plus; Beckton Dickinson). For assessment of dose-response characteristics of PETR3-regulated gene expression, CHO-ET11-SEAP were cultured at cell densities of 50,000/ml for 48 h at various EM concentrations.\nOther antibiotics were eluted from antibiotic test discs (Mast Diagnostica GmbH, Reinfeld, Germany, or bioMérieux, Geneva Switzerland) in cell culture medium at 37° C. for 12 h to reach a final concentration of 30 μg/ml. All macrolide antibiotics were used at a 2 μg/ml concentration unless indicated otherwise.\nTwo representative clones, CHO-ET11 and CHO-ET12, were chosen at random among ET1-expressing CHO cell clones stably transfected with a constitutive ET1 expression construct (pWW35).\nAccess to alternative effective antibiotics would expand the spectrum of regulating agents available for future use in human cell and gene therapy. Accordingly, several commercially available antibiotic sources were tested for their potential to regulate the ET1/PETR3 system as shown below in Table 3.\nThe effect of the different spacer length in promoters PETR2 and PETR7-PETR11 were examined by transfecting the corresponding plasmids (pWW37, pBP10-pBP14) into a CHO cell line stably transfected with the transactivator ET1 (MphR(A)-VP 16, see example 1)."}, "[2]": {"system": "ET1 / plant promoters PETRp1, PETRp8", "experiment": "EpOFF erythromycin-repressible GUS expression in Nicotiana tabacum SR1 suspension cells", "format": "cell-based", "conditions": "erythromycin 250 μg/ml, 48 hours", "procedure": "The transformation protocol of SR1 cells was adapted from Wu and Feng (1999, Plant Cell Reports 18: 381-386). In brief, 200 mg of exponentially growing SR1 cells were harvested by centrifugation. The cells were incubated for 15 min. in 2% DMSO and washed twice in fresh medium. Cells were subsequently resuspended in electroporation buffer (5 mM CaCl2; 10 mM NaCl2; 0.4 M sucrose; 8.7% glycerol; 4 mM ascorbate; 10 mM HEPES; pH 6.8) and mixed with desired DNA at a concentration of 0.2 μg/μl. The cell-DNA mixture was incubated for 10 min. on ice electroporated at 700 V/cm and 980 μF using a BioRad Gene Pulser and appropriate cuvettes. […]\nTransformed SR1 cells were incubated at 25° C. for 48 h while rocking at 110 rpm. […] Protein concentration of plant extracts was determined using a Bradford assay (Bradford, 1976, Anal. Biochem. 72: 248-254). […] The fluorescence time course was determined using typical 365 nm/455 nm excitation/emission profiles and a Shimadzu RF-5001 PC spectrofluorophotometer.\npBP6 (PCaMV35S-ET1-pAocs, FIG. 9a) was cotransformed either with pBP 18 (PETRp1-GUS-pA35S; FIG. 9b) or pBP36 (PETRp8-GUS-pA35S; FIG. 9b) by electroporation into the Nicotiana tabacum cell line SR1. GUS activity was assessed after 48 hours using a fluorescence-based detection technology."}}, "data": [{"smiles": "CC[C@H]1OC(=O)[C@H](C)[C@@H](O[C@H]2C[C@@](C)(OC)[C@@H](O)[C@H](C)O2)[C@H](C)[C@@H](O[C@@H]2O[C@H](C)C[C@H](N(C)C)[C@H]2O)[C@](C)(O)C[C@@H](C)C(=O)[C@H](C)[C@@H](O)[C@]1(C)O", "note": "[Erythromycin]", "values": [{"measurement": "SEAP Production (%) +EM", "setting": "[1]; CHO-ET11 + PETR3-SEAP (pWW38)", "result": "1.75 ± 0.1", "unit": "%"}, {"measurement": "SEAP production [%]", "setting": "[1]; CHO-ET11 transiently transfected with pWW38, 48 h, antibiotic 2 μg/ml, no macrolide = 100", "result": "1.7 ± 0.1", "unit": "%"}, {"measurement": "SEAP Production (%) +EM", "setting": "[1]; CHO-ET12 + PETR3-SEAP (pWW38)", "result": "4.67 ± 0.8", "unit": "%"}, {"measurement": "Reversibility of EM-responsive SEAP regulation", "setting": "[1]; both CHO-ET1 derivatives, repeated cycles of addition and withdrawal", "result": "fully reversible"}, {"measurement": "SEAP activity [U/L] + EM", "setting": "[1]; pBP10 (PETR7, 2 bp) in CHO stably transfected with ET1, 48 h", "result": "4.2 ± 1.0", "unit": "U/L"}, {"measurement": "SEAP activity [U/L] + EM", "setting": "[1]; pBP12 (PETR9, 6 bp) in CHO stably transfected with ET1, 48 h", "result": "8.4 ± 1.6", "unit": "U/L"}, {"measurement": "SEAP activity [U/L] + EM", "setting": "[1]; pBP13 (PETR10, 8 bp) in CHO stably transfected with ET1, 48 h", "result": "19.7 ± 1.4", "unit": "U/L"}, {"measurement": "SEAP activity [U/L] + EM", "setting": "[1]; pWW37 (PETR2, 0 bp) in CHO stably transfected with ET1, 48 h", "result": "8.3 ± 0.2", "unit": "U/L"}, {"measurement": "GUS expression level in the presence of erythromycin", "setting": "[2]; pBP6 + pBP18 (PETRp1)", "result": "32.2±3.9 pmoles 4-MU min^−1 mg^−1 protein^−1"}, {"measurement": "GUS expression level in the presence of erythromycin", "setting": "[2]; pBP6 + pBP36 (PETRp8)", "result": "44.2±4.6 pmoles 4-MU min^−1 mg^−1 protein^−1"}]}]}
